Results from patent US12435081B2, “Methods of treatment using BCN057 and BCN512” (BCN Biosciences L.L.C., priority 2019, dated 2025).

Key:
[1] = Solubility in aqueous formulations; type: physicochemical; conditions: 30 wt % Captisol (SBE-beta-CD) and 100 mM MSA, at up to pH 4.1 or higher
[2] = tested on: pancreatic cancer cell lines; assay: ATP Lite viability assay of pancreatic cancer cell lines; type: cell-based
Description: FIG. 1 depicts the Effects of 5-FU and BCN057 on the viability of pancreatic cancer cell lines. The Effects of 5-FU and BCN057 on the viability of pancreatic cancer cell lines were assessed by ATP Lite assay (Perkin Elmer). 50 uM 5Fu (5Fu, n=5), 50 uM 5Fu and 2, 5, 10, and 20 uM BCN057 (5Fu+BCN057, n=5) or 2, 5, 10.20 uM CN057 (CN057, n=5). Control cells (V, n=5) The Percent Phosphorylation was calculated by dividing the average value for each condition by the average value of the control cells (V) at each time point.
FIGS. 4A and 4B show Compound H, Compound K and the results of a Viability Assay on Pancreatic Cells. […] The numeric data is also included (FIG. 4B). FIG. 5A depicts Compound H and FIG. 5B depicts Compound K.

Panc-1 cells = assay: RealTime-Glo Annexin V Apoptosis and Necrosis Assay; type: cell-based
Description: FIGS. 2A and 2B depict the Annexin V Apoptosis and Necrosis Assay in Panc-1 cells. Panc-1 cells were exposed to serial dilutions of 057 in the presence or absence of the RealTime-Glo™ Annexin V Apoptosis and Necrosis Assay Reagent. The plate was incubated at 37° C./5% CO2 and luminescence (Annexin V binding) was measured over a period of 6 hours.

[3] = tested on: pancreatic cancer cell lines; assay: Imaging of pancreatic cancer cell lines over time; type: cell-based; conditions: 10 uM, time 0 to 240 minutes
Description: FIG. 3 depicts the Effects of 10 uM BCN057 on the viability of pancreatic cancer cell lines. The images show pancreatic cancer cell lines at time 0 (FIG. 3A), 15 minutes (FIG. 3B), 30 minutes (FIG. 3C), 60 minutes (FIG. 3D), 120 minutes (FIG. 3E) and 240 minutes (FIG. 3F).

lung fibrosis = assay: Fibrotic lesions in lung sections; type: in vivo; conditions: BCN512 treated (20×512) vs. vehicle (20×V), C57BL mice, day 180, five mice per group
Description: Lesions were defined by local density with five mice per group assessed at day 180. This effect is observed with non-radiation induced stimuli such as LPS and cytotoxic drugs.

TGFβ = assay: Histopathology of lung and cardiac muscle sections stained for TGFβ after thoracic radiation; type: in vivo, C57M Male mice
Description: Transforming growth factor β (TGF-β) is a central mediator of fibrogenesis. […] TGFβ is reduced when treated for the first 20 days post radiation with BCN512 at 5 mg/kg. Images D-F are cardiac muscle stains under the identical parameters above from the same animals. […] We expect the same results using non-radiation induced stimuli including LPS and cytotoxic drugs.

Wnt activity [4] = assay: TOPFLASH assay of exosomes purified from lung organoid conditioned medium; type: cell-based, mice; conditions: irradiated organoids treated with BCN512 compared to irradiated control
Description: If BCN512 and related structures inhibit the activity of SRFPs, BCN512 can allow more free Wnt ligand from epithelial cells. Free Wnt ligands are secreted and transported through exosomes. To determine the role of BCN512 in pulmonary epithelium derived Wnt release, exosomes were purified from organoid conditioned medium. Purified exosomes were tested for Wnt activity by the TOPFLASH assay.
Wnt activity has also been examined in exosomes derived from human lung organoids.

[5] = tested on: HEK293 cells having a TCF/LEF luciferase reporter construct; assay: TCF/LEF luciferase reporter assay of canonical WNT activity; type: cell-based; conditions: after 24 hours, compared with vehicle treated cells
Description: These studies and observations are consistent with previous observations, specifically that WNT-catenin signaling promotes the self-renewal and differentiation of LGR5+ epithelial (lung, oral, intestinal) stem cells. Canonical WNT activity was measured in HEK293 cells having a TCF/LEF luciferase reporter construct. Luciferase activity was measured after 24 hours.

Wnt activity [6] = assay: TOPFLASH assay of exosomes purified from human lung organoid conditioned medium; type: cell-based; conditions: human lung organoids irradiated (4-6 Gy), treated with BCN512, compared to irradiated control
Description: For the role of BCN512 in human pulmonary epithelium derived Wnt release, exosome were purified from organoid conditioned medium. Purified exosomes were tested for Wnt activity by TOPFLASH assay.

Structure (SMILES)	solubility [1]	antineoplastic activity / proliferation of the tumor cell line [2]	fluorescence (necrosis) (Panc-1 cells; over the same 6 hour period)	apoptosis (luminescence, Annexin V binding) (Panc-1 cells; serial dilutions, measured over 6 hours)	morphological changes and apoptosis [3]	lung fibrosis (number of fibrotic lesions in lung sections) (lung fibrosis)	TGFβ staining in lung sections (TGFβ; 14Gy thoracic radiation, 5 mg/kg for the first 20 days post radiation, assessed on day 90)	TGFβ staining with non-radiation induced stimuli (TGFβ; non-radiation induced stimuli including LPS and cytotoxic drugs)	TGFβ staining in cardiac muscle (TGFβ; same animals and parameters: 14Gy thoracic radiation, 5 mg/kg for first 20 days, day 90)	exosomal Wnt activity (Wnt activity [4])	luciferase activity [5]	exosomal Wnt activity (Wnt activity [6])
COc1ccc2cc(-c3nc4ccc(C)cn4c3NCc3ccco3)c(=O)[nH]c2c1 [BCN057, (3-[(Furan-2-ylmethyl)-amino]-2-(7-methoxy-2-oxo-1,2-dihydro-quinolin-3-yl)-6-methyl-imidazo[1,2-a]pyridin-1-ium)]	excellent solubility	inhibits the proliferation of the tumor cell line	No change	increase with increasing concentrations	particularly apparent at 240 minutes	–	–	–	–	–	–	–
O=[N+]([O-])c1ccc([S@SP3](=O)(=O)N2CCN(c3ccccc3)CC2)cc1 [BCN512, 1-[(4-nitrobenezene)sulfonyl]-4-phenyl piperazine]	–	–	–	–	–	significant reduction	reduced	same results	significant reduction	several folds higher	significantly increased	several folds high
